21 compounds from US20260258032A1, “TYROSINE KINASE 2 INHIBITORS AND USES THEREOF” (BIOGEN MA INC., priority 2022, published 2026) can be followed below.

Where a name gives a salt, the structure may show the parent alone.

One experiment has as its target T1, JH2 domain of human Tyk2 (Homo sapiens, UniProt P29597).
T1 construct: 10×His-tagged TYK2 JH2 domain (amino acid 575-876)
The experiment is described as follows: JH2 biochemical assay (TR-FRET probe displacement). The class given is binding. The settings on record: TR-FRET probe displacement, JH2 domain of human Tyk2. A digest of the protocol:
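A probe-displacement TR-FRET readout: compounds, tested in 3-fold, 10-point dilutions starting at […], compete with 2 nM tracer for 2 nM His-tagged JH2 (residues 575-876) detected by 0.1 nM Tb-anti-His over 60 min. IC50 comes from 4-parameter fits of normalized 520/495 nm ratios.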
A general note: Time-resolved FRET reads energy transfer from a long-lived donor to a nearby acceptor.

Experiment [1] has as its system Tyk2 kinase activity on STAT4. The experiment in a line: pSTAT4 cell assay (MSD, NK92 cells). The settings on record: compounds 1 hr, then stimulated 15 minutes. Format: cell-based. A digest of the protocol: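 Cells natively expressing STAT4 and Tyk2 (NK92) are serum-starved to lower background phosphorylation, exposed to compound for 1 hr over a 10-point four-fold series starting at 10 μM, and stimulated with 30 ng/mL IL2 for 15 minutes. Phosphorylation is quantified on MSD with anti-STAT4 antibodies.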

T1 sequence (P29597 575-876): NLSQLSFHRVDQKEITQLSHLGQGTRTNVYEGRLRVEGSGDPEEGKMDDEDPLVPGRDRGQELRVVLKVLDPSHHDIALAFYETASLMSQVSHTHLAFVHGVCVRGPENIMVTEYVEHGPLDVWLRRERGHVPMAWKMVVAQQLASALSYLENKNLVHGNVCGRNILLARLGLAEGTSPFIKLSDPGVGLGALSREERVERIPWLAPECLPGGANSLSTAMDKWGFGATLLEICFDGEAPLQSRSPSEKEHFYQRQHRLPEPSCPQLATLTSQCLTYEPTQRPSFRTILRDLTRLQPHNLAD

With `CC(=O)Nc1cc2c(cn1)C1(CC1)CN2c1cc(-c2cnn(CC3CC3)c2)nc(C(C)(F)F)n1` [Example 389, N-(1′-(6-(1-(cyclopropylmethyl)-1H-pyrazol-4-yl)-2-(1,1-difluoroethyl)pyrimidin-4-yl)-1′,2′-dihydrospiro[cyclopropane-1,3′-pyrrolo[3,2-c]pyridin]-6′-yl)acetamide], the IC50 (on JH2 domain of human Tyk2; in experiment [1]) was not above 10 nM each time.

Turning to `CC(=O)Nc1cc2c(cn1)C1(CC1)CN2c1cc(-c2cnn(CCN3CCOCC3)c2)nc(C(C)(F)F)n1` [Example 390, N-(1′-(2-(1,1-difluoroethyl)-6-(1-(2-morpholinoethyl)-1H-pyrazol-4-yl)pyrimidin-4-yl)-1′,2′-dihydrospiro[cyclopropane-1,3′-pyrrolo[3,2-c]pyridin]-6′-yl)acetamide trifluoroacetate], the IC50 (on JH2 domain of human Tyk2; in experiment [1]) was not above 10 nM throughout.

In the case of `CC(=O)Nc1cc2c(cn1)C1(CC1)CN2c1cc(-c2cnn(CCN(C)C)c2)nc(C(C)(F)F)n1` [Example 391, N-(1′-(2-(1,1-difluoroethyl)-6-(1-(2-(dimethylamino)ethyl)-1H-pyrazol-4-yl)pyrimidin-4-yl)-1′,2′-dihydrospiro[cyclopropane-1,3′-pyrrolo[3,2-c]pyridin]-6′-yl)acetamide trifluoroacetate], the IC50 at JH2 domain of human Tyk2 is not above 10 nM; in experiment [1], 10 to 100 nM.

On to `CC(=O)Nc1cc2c(cn1)C1(CC1)CN2c1cc(-c2cnn(CC(F)(F)F)c2)nc(C(C)(F)F)n1` [Example 392, N-(1′-(2-(1,1-difluoroethyl)-6-(1-(2,2,2-trifluoroethyl)-1H-pyrazol-4-yl)pyrimidin-4-yl)-1′,2′-dihydrospiro[cyclopropane-1,3′-pyrrolo[3,2-c]pyridin]-6′-yl)acetamide], for which the IC50 (on JH2 domain of human Tyk2; in experiment [1]) was not above 10 nM in each case.

Regarding `COCCn1cc(-c2cc(N3CC4(CC4)c4cnc(NC(C)=O)cc43)nc(C(C)(F)F)n2)cn1` [Example 394, N-(1′-(2-(1,1-difluoroethyl)-6-(1-(2-methoxyethyl)-1H-pyrazol-4-yl)pyrimidin-4-yl)-1′,2′-dihydrospiro[cyclopropane-1,3′-pyrrolo[3,2-c]pyridin]-6′-yl)acetamide], the IC50 (at JH2 domain of human Tyk2; in experiment [1]) was not above 10 nM each time.

With `CC(=O)Nc1cc2c(cn1)C1(CC1)CN2c1cc(-c2cn[nH]c2)nc(C(C)(F)F)n1` [Example 395, N-(1′-(2-(1,1-difluoroethyl)-6-(1H-pyrazol-4-yl)pyrimidin-4-yl)-1′,2′-dihydrospiro[cyclopropane-1,3′-pyrrolo[3,2-c]pyridin]-6′-yl)acetamide trifluoroacetate], the IC50 was not above 10 nM at JH2 domain of human Tyk2 and 10 to 100 nM in experiment [1].

`CC(=O)Nc1cc2c(cn1)C1(CC1)CN2c1cc(C)nc(C2COC2)n1` [Example 396, N-(1′-(6-methyl-2-(oxetan-3-yl)pyrimidin-4-yl)-1′,2′-dihydrospiro[cyclopropane-1,3′-pyrrolo[3,2-c]pyridin]-6′-yl)acetamide]: the IC50 at JH2 domain of human Tyk2 is 10 to 100 nM; in experiment [1], not below 1000 nM.

As to `COCc1cc(N2CC3(CC3)c3cnc(NC(C)=O)cc32)nc(C(C)(F)F)n1` [Example 397, N-(1′-(2-(1,1-difluoroethyl)-6-(methoxymethyl)pyrimidin-4-yl)-1′,2′-dihydrospiro[cyclopropane-1,3′-pyrrolo[3,2-c]pyridin]-6′-yl)acetamide], the IC50 at JH2 domain of human Tyk2 was not above 10 nM; in experiment [1], 100 to 1000 nM.

For the compound `CC(=O)Nc1cc2c(cn1)C1(CC1)CN2c1cc(C(C)(C)F)nc(C(C)(F)F)n1` [Example 398, N-(1′-(2-(1,1-difluoroethyl)-6-(2-fluoropropan-2-yl)pyrimidin-4-yl)-1′,2′-dihydrospiro[cyclopropane-1,3′-pyrrolo[3,2-c]pyridin]-6′-yl)acetamide], the IC50 on JH2 domain of human Tyk2 was not above 10 nM; in experiment [1], 10 to 100 nM.

`CC(=O)Nc1cc2c(cn1)C1(CC1)CN2c1cc(C(C)(C)O)nc(C(C)(F)F)n1` [Example 399, N-(1′-(2-(1,1-difluoroethyl)-6-(2-hydroxypropan-2-yl)pyrimidin-4-yl)-1′,2′-dihydrospiro[cyclopropane-1,3′-pyrrolo[3,2-c]pyridin]-6′-yl)acetamide]: the IC50 at JH2 domain of human Tyk2 was not above 10 nM; in experiment [1] it was 10 to 100 nM.

As to `CC(=O)Nc1cc2c(cn1)C1(CC1)CN2c1cc(C(C)F)nc(C(C)(F)F)n1` (stereo not drawn) [Example 400, N-(1′-(2-(1,1-difluoroethyl)-6-(1-fluoroethyl)pyrimidin-4-yl)-1′,2′-dihydrospiro[cyclopropane-1,3′-pyrrolo[3,2-c]pyridin]-6′-yl)acetamide], the IC50 at JH2 domain of human Tyk2 was not above 10 nM; in experiment [1] it was 10 to 100 nM.

On to `COCC(F)(F)c1nc(C)cc(N2CC3(CC3)c3cnc(NC(C)=O)cc32)n1` [Example 401, N-(1′-(2-(1,1-difluoro-2-methoxyethyl)-6-methylpyrimidin-4-yl)-1′,2′-dihydrospiro[cyclopropane-1,3′-pyrrolo[3,2-c]pyridin]-6′-yl)acetamide trifluoroacetate], for which the IC50 was 10 to 100 nM at JH2 domain of human Tyk2 and not below 1000 nM in experiment [1].

As to `CC(=O)Nc1cc2c(cn1)C1(CC1)CN2c1cc(C)cc(N2CC[C@H](C#N)C2)n1` [Example 402, (S)-N-(1′-(6-(3-cyanopyrrolidin-1-yl)-4-methylpyridin-2-yl)-1′,2′-dihydrospiro[cyclopropane-1,3′-pyrrolo[3,2-c]pyridin]-6′-yl)acetamide], the IC50 on JH2 domain of human Tyk2 was 10 to 100 nM; in experiment [1], not below 1000 nM.

With `CC(=O)Nc1cc2c(cn1)C1(CC1)CN2c1cc(C)cc(N2CC[C@@H](C#N)C2)n1` [Example 403, (R)-N-(1′-(6-(3-cyanopyrrolidin-1-yl)-4-methylpyridin-2-yl)-1′,2′-dihydrospiro[cyclopropane-1,3′-pyrrolo[3,2-c]pyridin]-6′-yl)acetamide], the IC50 was not above 10 nM on JH2 domain of human Tyk2 and 100 to 1000 nM in experiment [1].

Consider `CC(=O)Nc1cc2c(cn1)C1(CC1)CN2c1cc(C)cc(N2CCC(C)(C#N)C2)n1` (stereo not drawn) [Example 404, N-(1′-(6-(3-cyano-3-methylpyrrolidin-1-yl)-4-methylpyridin-2-yl)-1′,2′-dihydrospiro[cyclopropane-1,3′-pyrrolo[3,2-c]pyridin]-6′-yl)acetamide], for which the IC50 at JH2 domain of human Tyk2 is 10 to 100 nM; in experiment [1], not below 1000 nM.

As for `CC(=O)Nc1cc2c(cn1)C1(CC1)CN2c1cc(C)cc(N2CCC(C)(O)C2)n1` (stereo not drawn) [Example 405, N-(1′-(6-(3-hydroxy-3-methylpyrrolidin-1-yl)-4-methylpyridin-2-yl)-1′,2′-dihydrospiro[cyclopropane-1,3′-pyrrolo[3,2-c]pyridin]-6′-yl)acetamide trifluoroacetate], the values for the IC50 (at JH2 domain of human Tyk2; in experiment [1]) were 100 to 1000 nM and not below 1000 nM, respectively.

For `CC(=O)Nc1cc2c(cn1)C1(CC1)CN2c1cc(C)cc(N2CCN(CCO)CC2)n1` [Example 406, N-(1′-(6-(4-(2-hydroxyethyl)piperazin-1-yl)-4-methylpyridin-2-yl)-1′,2′-dihydrospiro[cyclopropane-1,3′-pyrrolo[3,2-c]pyridin]-6′-yl)acetamide], the figures for the IC50 (on JH2 domain of human Tyk2; in experiment [1]) were 100 to 1000 nM and not below 1000 nM, respectively.

In the case of `CC(=O)Nc1cc2c(cn1)C1(CC1)CN2c1cc(C)nc(N2CC[C@@H](C#N)C2)n1` [Example 407, (R)-N-(1′-(2-(3-cyanopyrrolidin-1-yl)-6-methylpyrimidin-4-yl)-1′,2′-dihydrospiro[cyclopropane-1,3′-pyrrolo[3,2-c]pyridin]-6′-yl)acetamide], the IC50 on JH2 domain of human Tyk2 was not above 10 nM; in experiment [1] it was 100 to 1000 nM.

On to `CC(=O)Nc1cc2c(cn1)C1(CC1)CN2c1cc(C)nc(N2CC[C@H](C#N)C2)n1` [Example 408, (S)-N-(1′-(2-(3-cyanopyrrolidin-1-yl)-6-methylpyrimidin-4-yl)-1′,2′-dihydrospiro[cyclopropane-1,3′-pyrrolo[3,2-c]pyridin]-6′-yl)acetamide], for which the figures for the IC50 (on JH2 domain of human Tyk2; in experiment [1]) were 10 to 100 nM and 100 to 1000 nM, respectively.

Take `CC(=O)Nc1cc2c(cn1)C1(CC1)CN2c1cc(C)nc(N2CCC(C)(C#N)C2)n1` (stereo not drawn) [Example 409, N-(1′-(2-(3-cyano-3-methylpyrrolidin-1-yl)-6-methylpyrimidin-4-yl)-1′,2′-dihydrospiro[cyclopropane-1,3′-pyrrolo[3,2-c]pyridin]-6′-yl)acetamide]: the IC50 is 10 to 100 nM at JH2 domain of human Tyk2 and not below 1000 nM in experiment [1].

In the case of `CC(=O)Nc1cc2c(cn1)C1(CC1)CN2c1cc(C)nc(N2CC(CC(C)C)C2)n1` [Example 410, N-(1′-(2-(3-isobutylazetidin-1-yl)-6-methylpyrimidin-4-yl)-1′,2′-dihydrospiro[cyclopropane-1,3′-pyrrolo[3,2-c]pyridin]-6′-yl)acetamide trifluoroacetate], the IC50 on JH2 domain of human Tyk2 is not below 1000 nM; in experiment [1] it was 100 to 1000 nM.

A word on the IC50: it is the concentration needed to halve the response being measured. The low end stands for greater potency, the high end for weaker potency.
